Data set [1] can be described thus: Cytotoxicity against mouse 3T3L1 cells assessed as cell viability at 3 uM by CCK8 assay relative to control. To be noted: 3T3-L1 cells, read-out: Activity. The format is cell-based.
Data set [2] concerns 3T3-L1. The data set is described as follows: Adipogenetic activity in mouse 3T3L1 cells assessed as increase in triglyceride level at 10 uM relative to control. The format is functional.
A short description of data set [3]: Cytotoxicity against mouse 3T3L1 cells assessed as cell viability at 1 uM by CCK8 assay relative to control. The data set is classed as cell-based. To be noted: 3T3-L1 cells, read-out: Activity.
Data set [4] relates to 3T3-L1. As to the kind of experiment: Adipogenetic activity in mouse 3T3L1 cells assessed as increase in triglyceride level at 30 uM relative to control. The data set is classed as functional.
Data set [5] in a line: Cytotoxicity against mouse 3T3L1 cells assessed as cell viability at 10 uM by CCK8 assay relative to control. To be noted: 3T3-L1 cells, read-out: Activity. The data set is classed as cell-based. (In general: Tetrazolium dyes change colour on reduction, which living cells bring about.)
A short description of data set [6]: Cytotoxicity against mouse 3T3L1 cells assessed as cell viability at 30 uM by CCK8 assay relative to control. The format is cell-based. To be noted: 3T3-L1 cells, read-out: Activity.
Data set [7] is described as follows: Cytotoxicity against mouse 3T3L1 cells assessed as cell viability at 0.3 uM by CCK8 assay relative to control. The format is cell-based. To be noted: 3T3-L1 cells, read-out: Activity.
The test system of data set [8] is 3T3-L1. The data set is described as follows: Increase of GLUT4 mRNA expression in mouse 3T3L1 cells at 30 uM by RT-PCR analysis relative to beta-actin mRNA level. The format is functional.
Data set [9] has as its system 3T3-L1. The data set is described as follows: Increase of aP2 mRNA expression in mouse 3T3L1 cells at 30 uM by RT-PCR analysis relative to beta-actin mRNA level. The format is functional.
Data set [10] deals with 3T3-L1. As to the kind of experiment: Increase of PPARgamma2 mRNA expression in mouse 3T3L1 cells at 10 uM by RT-PCR analysis relative to beta-actin mRNA level. The format is functional.
The test system of data set [11] is 3T3-L1. As to the kind of experiment: Increase of aP2 mRNA expression in mouse 3T3L1 cells at 10 uM by RT-PCR analysis relative to beta-actin mRNA level. The format is functional.
Data set [12] has as its system 3T3-L1. The data set is described as follows: Increase of PPARgamma2 mRNA expression in mouse 3T3L1 cells at 3 uM by RT-PCR analysis relative to beta-actin mRNA level. The format is functional.
For data set [13], the system named is 3T3-L1. The data set is described as follows: Increase of adiponectin mRNA expression in mouse 3T3L1 cells at 3 uM by RT-PCR analysis relative to beta-actin mRNA level. The format is functional.
The test system of data set [14] is 3T3-L1. As to the kind of experiment: Increase of aP2 mRNA expression in mouse 3T3L1 cells at 3 uM by RT-PCR analysis relative to beta-actin mRNA level. The data set is classed as functional.
Data set [15] has as its system 3T3-L1. The data set is described as follows: Increase of adiponectin mRNA expression in mouse 3T3L1 cells at 30 uM by RT-PCR analysis relative to beta-actin mRNA level. The format is functional.
In data set [16] the test system is 3T3-L1. As to the kind of experiment: Increase of C/EBPdelta mRNA expression in mouse 3T3L1 cells at 10 uM by RT-PCR analysis relative to beta-actin mRNA level. The format is functional.
The subject of data set [17] is 3T3-L1. The data set is described as follows: Increase of 2-deoxyglucose uptake in mouse 3T3L1 cells using 2-deoxy-D-(2,6-3H)-glucose after 2 hrs by liquid scintillation counting. The data set is classed as functional, cell-based.
In data set [18] the test system is 3T3-L1. As to the kind of experiment: Increase of PPARgamma2 mRNA expression in mouse 3T3L1 cells at 30 uM by RT-PCR analysis relative to beta-actin mRNA level. The data set is classed as functional.
Data set [19] concerns 3T3-L1. The data set is described as follows: Increase of C/EBPdelta mRNA expression in mouse 3T3L1 cells at 30 uM by RT-PCR analysis relative to beta-actin mRNA level. The format is functional.
For data set [20], the system named is 3T3-L1. As to the kind of experiment: Increase of C/EBPalpha mRNA expression in mouse 3T3L1 cells at 3 uM by RT-PCR analysis relative to beta-actin mRNA level. The format is functional.
Data set [21] deals with 3T3-L1. The data set is described as follows: Increase of C/EBPalpha mRNA expression in mouse 3T3L1 cells at 30 uM by RT-PCR analysis relative to beta-actin mRNA level. The data set is classed as functional.
In data set [22] the test system is 3T3-L1. As to the kind of experiment: Increase of C/EBPbeta mRNA expression in mouse 3T3L1 cells at 3 uM by RT-PCR analysis relative to beta-actin mRNA level. The data set is classed as functional.
In data set [23] the test system is 3T3-L1. As to the kind of experiment: Increase of C/EBPalpha mRNA expression in mouse 3T3L1 cells at 10 uM by RT-PCR analysis relative to beta-actin mRNA level. The format is functional.
Data set [24] has as its system 3T3-L1. As to the kind of experiment: Increase of C/EBPdelta mRNA expression in mouse 3T3L1 cells at 3 uM by RT-PCR analysis relative to beta-actin mRNA level. The format is functional.
Data set [25] concerns 3T3-L1. The data set is described as follows: Increase of C/EBPbeta mRNA expression in mouse 3T3L1 cells at 10 uM by RT-PCR analysis relative to beta-actin mRNA level. The format is functional.
In data set [26] the target is T1, Peroxisome proliferator-activated receptor gamma (Homo sapiens) (UniProt P37231).
T1 sequence (whole entry): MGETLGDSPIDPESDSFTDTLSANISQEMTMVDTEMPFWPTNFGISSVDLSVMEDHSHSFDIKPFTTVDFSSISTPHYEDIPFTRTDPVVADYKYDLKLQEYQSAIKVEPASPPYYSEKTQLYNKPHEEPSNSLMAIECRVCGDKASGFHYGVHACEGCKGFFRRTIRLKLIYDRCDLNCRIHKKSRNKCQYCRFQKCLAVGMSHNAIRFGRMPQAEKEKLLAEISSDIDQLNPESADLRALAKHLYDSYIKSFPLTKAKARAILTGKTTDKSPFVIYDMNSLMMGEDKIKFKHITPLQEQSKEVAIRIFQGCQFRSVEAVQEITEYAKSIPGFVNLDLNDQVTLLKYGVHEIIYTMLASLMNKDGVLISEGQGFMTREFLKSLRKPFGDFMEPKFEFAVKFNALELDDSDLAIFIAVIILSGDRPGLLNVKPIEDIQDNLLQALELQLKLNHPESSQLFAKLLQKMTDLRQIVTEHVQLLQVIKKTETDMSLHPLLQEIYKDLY
The data set is described as follows: Agonist activity at PPARgamma (unknown origin) at 0.01 to 100 uM by nuclear receptor cofactor assay.

Data set [27] deals with 3T3-L1. As to the kind of experiment: Increase of adiponectin mRNA expression in mouse 3T3L1 cells at 10 uM by RT-PCR analysis relative to beta-actin mRNA level. The format is functional.
Data set [28] concerns 3T3-L1. As to the kind of experiment: Increase of GLUT4 mRNA expression in mouse 3T3L1 cells at 3 uM by RT-PCR analysis relative to beta-actin mRNA level. The format is functional.
Data set [29] has as its system 3T3-L1. The data set is described as follows: Increase of GLUT4 mRNA expression in mouse 3T3L1 cells at 10 uM by RT-PCR analysis relative to beta-actin mRNA level. The format is functional.
In data set [30] the test system is 3T3-L1. As to the kind of experiment: Increase of C/EBPbeta mRNA expression in mouse 3T3L1 cells at 30 uM by RT-PCR analysis relative to beta-actin mRNA level. The data set is classed as functional.
Data set [31] concerns 3T3-L1. The data set is described as follows: Increase of 2-deoxyglucose uptake in mouse 3T3L1 cells using 2-deoxy-D-(2,6-3H)-glucose at 1 uM after 2 hrs by liquid scintillation counting. The format is functional, cell-based.

Calls of active or inactive are those of the source. The calls are words filed in the database; no cut-off is given here.

`CCCCNC(=O)/C=C/C=C/CC/C=C/c1ccc2c(c1)OCO2`: in data set [1], the viability at 3 µM is 87.1%. In addition, the Activity in data set [2] is 55.9%; in data set [4], 46.2%. Besides, the viability at 1 µM in [3] was 94.8%. The viability at 10 µM in data set [5] was 69.3%. The viability at 30 µM in [6] came out at 78.7%. In [7], the viability at 0.3 µM was found to be 96.2%.

For `COC(=O)/C=C/C=C/CC/C=C/c1ccc2c(c1)OCO2`, the Activity turned out to be 4.6% in data set [2] and 4% in data set [4].

Regarding `OC/C=C/C=C/CC/C=C/c1ccc2c(c1)OCO2`, the Activity in data set [2] stood at 0.6%.

With `CC(C)NC(=O)/C=C/C=C/CC/C=C/c1ccc2c(c1)OCO2`, in data set [1], the viability at 3 µM stood at 96.6%. The values for the Activity in [2] and in data set [4] were 39.4% and 43.1%, respectively. The viability at 1 µM in data set [3] is 94.8%. Besides, in [5], the viability at 10 µM was determined as 96.1%. Also, the viability at 30 µM in [6] amounted to 102%. The viability at 0.3 µM in data set [7] is 95%.

`CCCCCNC(=O)/C=C/C=C/CC/C=C/c1ccc2c(c1)OCO2`: the Ratio came to 4.22 in data set [8]; 3.09 in [9]; 1.76 in [10]; 3.18 in data set [11]; 0.88 in data set [12]; 1.04 in data set [13]. In addition, the Ratio was 0.86 in data set [14]; 2.16 in [15]; 1.5 in data set [16]; 2.57 in [18]; 2.64 in data set [19]; 0.81 in data set [20]. Further, the Ratio in data set [21] was determined as 4.91; in data set [22], 0.98; in [23] it was 1.27; in data set [24] it was 0.79; in data set [25], 1.6; in [27], 1.3. For the same compound, the Ratio in data set [28] came out at 1.55; in [29], 3.89; in data set [30], 2.91. Also, the viability at 3 µM in data set [1] turned out to be 105%. Moreover, the Activity was 55.4% in [2], “Dose-dependent effect” in data set [17] and 58.8% in data set [4]. In addition, in [3], the viability at 1 µM worked out at 102%. Moreover, the viability at 10 µM in data set [5] stood at 99%. In addition, the viability at 30 µM in [6] was found to be 107%. In addition, the result in data set [26] was Active. Further, the viability at 0.3 µM in data set [7] came out at 98.7%.

Regarding `O=C(/C=C/C=C/CC/C=C/c1ccc2c(c1)OCO2)N1CCCCC1` [DEHYDROPIPERNOLINE], the Activity in data set [2] was determined as 21.6%.

Take `Cc1c(C)c2c(c(C)c1O)CCC(C)(COc1ccc(CC3SC(=O)NC3=O)cc1)O2` (stereo not drawn): the outcome in data set [31] was Active.

In the case of `CC(C)COC(=O)/C=C/C=C/CC/C=C/c1ccc2c(c1)OCO2`, the figures for the Activity in data set [2] and in data set [4] were 20% and 21.7%, respectively. Besides, the viability at 30 µM in data set [6] stood at 21.7%.

In the case of `CC(C)CNC(=O)/C=C/C=C/CC/C=C/c1ccc2c(c1)OCO2` [RETROFRACTAMIDE A], in data set [1], the viability at 3 µM was found to be 109%. The Activity in [2] was 38%; in [4] it was 22.9%. Further, the viability at 1 µM in data set [3] was 98.1%. Further, the viability at 10 µM in data set [5] was 108%. Further, in data set [6], the viability at 30 µM turned out to be 109%. Further, the viability at 0.3 µM in data set [7] was found to be 100%.

For `CCCNC(=O)/C=C/C=C/CC/C=C/c1ccc2c(c1)OCO2`, the viability at 3 µM in data set [1] is 102%. Further, the results for the Activity in [2] and in [4] were 42.7% and 18.7%, respectively. For the same compound, the viability at 1 µM in data set [3] stood at 104%. Also, the viability at 10 µM in data set [5] was 87.5%. Further, the viability at 30 µM in [6] stood at 68.4%. The viability at 0.3 µM in [7] is 101%.

`CC(C)CNC(=O)CCCCCCCCc1ccc2c(c1)OCO2`: the viability at 3 µM in data set [1] came out at 104%. In addition, the Activity was 13.3% in data set [2] and 31.9% in data set [4]. Also, in data set [3], the viability at 1 µM was 105%. In data set [5], the viability at 10 µM came to 111%. Besides, the viability at 30 µM in data set [6] turned out to be 109%. In data set [7], the viability at 0.3 µM is 99.3%.
